Data on eight compounds can be found in patent publication US20100285964A1, “SALTS OF 2-IODO-N-[(4-METHOXY-6-METHYL-1,3, 5-TRIAZINE-2-YL) CARBAMOYL] BENZENESULFONAMIDE, METHOD FOR THE PRODUCTION THEREOF AND USE THEREOF AS HERBICIDES AND PLANT GROWTH REGULATORS” (BayerCropScience AG, priority 2007, published 2010).

What all share (type): in vivo
Series [1] has as its system Matricaria inodora, Papaver rhoeas, Stellaria media and Viola tricolor. The series is described as follows: Pre-emergence herbicidal action, greenhouse. The following applies: pre-emergence method, application rate of 0.08 kg or less of active substance per hectare, scored after 3 to 4 weeks. From the text: Seeds or rhizome pieces of mono- and dicotyledonous weeds were placed in sandy loam in cardboard pots and covered with soil. The compounds according to the invention, formulated in the form of wettable powders or emulsion concentrates, were then applied to the surface of the covering soil in the form of aqueous suspensions or emulsions at an application rate of 100 to 800 l of water/ha (converted), at various dosages.
After the treatment, the pots were placed in a greenhouse and kept under good growth conditions for the weeds. The visual scoring of the damage to the plants or the emergence damage was carried out after the emergence of the test plants after a test period of 3 to 4 weeks, by comparison with untreated controls. As shown by the results, the compounds according to the invention have good herbicidal pre-emergence activity against a broad spectrum of weed grasses and broad-leaved weeds.

The subject of series [2] is Amaranthus retroflexus, Lolium multiflorum, Abuthilon theophrasti, Matricaria inodora, Ipomoea purpurea, Panicum minor, Stellaria media, Solanum nigrum …. As to the kind of experiment: Post-emergence herbicidal action, greenhouse. The following applies: post-emergence method, application rate of 0.08 kg or less of active substance per hectare, scored after about 10 to 28 days. The protocol:
Seeds or rhizome pieces of monocotyledonous and dicotyledonous weeds were placed in sandy loam in plastic pots, covered with soil and cultivated in a greenhouse under good growth conditions. Three weeks after sowing, the test plants were treated at the three-leaf stage. The compounds according to the invention, formulated as wettable powders or as emulsion concentrates, were sprayed onto the green parts of the plants at various dosages using a water application rate of from 100 to 800 l/ha (converted).

A further series has as its system Panicum minor. As to the kind of experiment: Post-emergence herbicidal action, field trial (Table A-1). The following applies: 20 g of ai/ha (acid equivalent for salts), 3-5-leaf stage, 25 days after application, 0%=no control, 100%=complete control. From the text: (§1) In a direct comparison, under field trial conditions (time of application 3-5-leaf stage of the weeds examined), the activities of the weed control of the free acid “2-iodo-N-[(4-methoxy-6-methyl-1,3,5-triazin-2-yl)carbamoyl]benzenesulfonamide” known from DE 27 15 786 were compared to individual salts according to the invention of 2-iodo-N-[(4-methoxy-6-methyl-1,3,5-triazin-2-yl)carbamoyl]benzenesulfonamide (compound I-3 (potassium salt of 2-iodo-N-[(4-methoxy-6-methyl-1,3,5-triazin-2-yl)carbamoyl]benzenesulfonamide) and 1-4 (magnesium salt of 2-iodo-N-[(4-methoxy-6-methyl-1,3,5-triazin-2-yl)carbamoyl]benzenesulfonamide)), evaluation being carried out 25 days after application. With respect to the activity, both a representative of a monocotyledonous weed (Panicum minor) and a representative of a dicotyledonous weed (Solanum nigrum) were scored according to the scheme below:
(§2) 0%=no control 100%=complete control

A further series relates to Solanum nigrum. The series is described as above. The following applies: 20 g of ai/ha (acid equivalent for salts), 3-5-leaf stage, 25 days after application, 0%=no control, 100%=complete control.
Description: as §1, §2

The test system of a further series is Chenopodium album. As to the kind of experiment: Post-emergence herbicidal action, outdoor trial (Table A-2). As to conditions: 2-4-leaf stage, 28 days after application.
Description: (§3) In a further direct comparison, under outdoor trial conditions (time of application 2-4-leaf stage of the weeds examined), the activities of the weed control of the free acid “2-iodo-N-[(4-methoxy-6-methyl-1,3,5-triazin-2-yl)carbamoyl]benzene-sulfonamide” known from DE 27 15 786 were compared to the inventive Na^+ salt of 2-iodo-N-[(4-methoxy-6-methyl-1,3,5-triazin-2-yl)carbamoyl]benzenesulfonamide (compounds I-2 according to the invention) at various application rates, evaluation being carried out 28 days after application. With respect to the activity, the weeds Chenopodium album, Fagopyran repens and Pennisetum glauca were scored according to the scheme below:
as §2

The subject of the next series is Fagopyran repens. Described as above. The following applies: 2-4-leaf stage, 28 days after application.
Description: as §3, §2

Another series relates to Pennisetum glauca. The description is as above. As to conditions: 30 g of ai/ha (acid equivalent for salt), 2-4-leaf stage, 28 days after application.
Description: as §3, §2

The test system of another series is broad bean (Vicia faba). As to the kind of experiment: Replanting behavior, crop sown in treated soil. As to conditions: scored after four weeks. The protocol: (§4) In further tests, various dosages of the test substances were worked into the soil. Subsequently, various crop plants were sown in plastic pots filled with the treated soil and cultivated in a greenhouse using a day/night rhythm of 22° C./14° C. After four weeks, the plants were scored according to the scheme below.
(§5) 0%=no damage 100%=complete damage

The subject of series [3] is oilseed rape (Brassica napus). The series is described as follows: Replanting behavior, crop sown in treated soil. The following applies: scored after four weeks. The protocol:
as §4, §5

Another series concerns sugar beet. The series is described as follows: Replanting behavior, crop sown in treated soil. As to conditions: scored after four weeks. The protocol: as §4, §5
Where [4] appears, read: 15 g of ai/ha (acid equivalent for salt).
The mark [5] stands for this setting: 30 g of ai/ha (acid equivalent for salt).
Setting [6] is: 0.1 g of ai/ha worked into the soil.
The mark [7] stands for this setting: 0.5 g of ai/ha worked into the soil.
The mark [8] stands for this setting: 1.9 g of ai/ha worked into the soil.
Setting [9] is: 7.5 g of ai/ha worked into the soil.
[10] abbreviates: 30 g of ai/ha worked into the soil, 0%=no damage, 100%=complete damage.

Take `COc1nc(C)nc(NC(=O)NS(=O)(=O)c2ccccc2I)n1.[K]` [Compound I-3, 2-Iodo-N-[(4-methoxy-6-methyl-1,3,5-triazin-2-yl)carbamoyl]benzenesulfonamide potassium salt]: the “herbicidal activity, pre-emergence (visual scoring)” value (from here on “herbicidal activity, pre-emergence”) in [1] is on record as “very good herbicidal activity”. In addition, in series [2], the “herbicidal activity, post-emergence (visual scoring)” value (“herbicidal activity, post-emergence” for short) is given as “very good herbicidal activity”. Further, the “Panicum minor control in %” value in the series with Panicum minor turned out to be 30%. Besides, the “Solanum nigrum control in %” value with Solanum nigrum stood at 84%.

On to `COc1nc(C)nc(NC(=O)NS(=O)(=O)c2ccccc2I)n1.[Mg]` [Compound I-4, 2-Iodo-N-[(4-methoxy-6-methyl-1,3,5-triazin-2-yl)carbamoyl]benzenesulfonamide magnesium salt], for which the “herbicidal activity, pre-emergence” value in series [1] is “very good herbicidal activity”. The “herbicidal activity, post-emergence” value in series [2] was “very good herbicidal activity”. The “Panicum minor control in %” value in the series with Panicum minor came to 48%. Also, in the series with Solanum nigrum, the “Solanum nigrum control in %” value worked out at 85%.

On to `COc1nc(C)nc(NC(=O)NS(=O)(=O)c2ccccc2I)n1` [2-Iodo-N-[(4-methoxy-6-methyl-1,3,5-triazin-2-yl)carbamoyl]benzenesulfonamide, reference compound], for which the “Panicum minor control in %” value with Panicum minor came to 0%. In the series with Solanum nigrum, the “Solanum nigrum control in %” value turned out to be 70%. In addition, the “Chenopodium album Control in %” value in the series on Chenopodium album (setting [4]) was determined as 90%; in the series on Chenopodium album (setting [5]) it was 98%. In addition, the “Fagopyran repens Control in %” value is recorded as 25% in the series with Fagopyran repens (setting [4]) and 40% with Fagopyran repens (setting [5]). In addition, in the series on Pennisetum glauca, the “Pennisetum glauca Control in %” value was 80%.

Turning to `COc1nc(C)nc(NC(=O)NS(=O)(=O)c2ccccc2I)n1.NCCO` [Compound I-19, 2-Iodo-N-[(4-methoxy-6-methyl-1,3,5-triazin-2-yl)carbamoyl]benzenesulfonamide-(2-hydroxyeth-1-yl)ammonium salt], the “herbicidal activity, pre-emergence” value in series [1] is “very good herbicidal activity”. Also, in [2], the “herbicidal activity, post-emergence” value is on record as “very good herbicidal activity”.

Take “2-Iodo-N-[(4-methoxy-6-methyl-1,3,5-triazin-2-yl)carbamoyl]benzenesulfonamide tetraethylammonium salt [Compound I-12]”: the “herbicidal activity, pre-emergence” value in series [1] is listed as “very good herbicidal activity”. For the same compound, the “herbicidal activity, post-emergence” value in series [2] was “very good herbicidal activity”.

On to `COc1nc(C)nc(NC(=O)NS(=O)(=O)c2ccccc2I)n1.[Na]` [Compound I-2, 2-Iodo-N-[(4-methoxy-6-methyl-1,3,5-triazin-2-yl)carbamoyl]benzenesulfonamide sodium salt], for which the “herbicidal activity, pre-emergence” value in series [1] is reported as “very good herbicidal activity”. Also, in [2], the “herbicidal activity, post-emergence” value is recorded as “very good herbicidal activity”. Also, the “Chenopodium album Control in %” value with Chenopodium album (setting [4]) is reported as 93%; in the series on Chenopodium album (setting [5]), 100%. For the same compound, the “Fagopyran repens Control in %” value in the series on Fagopyran repens (setting [4]) was 30%; in the series on Fagopyran repens (setting [5]) it was 45%. In addition, the “Pennisetum glauca Control in %” value in the series with Pennisetum glauca was 85%. In addition, the “Vicia faba damage in %” value in the series on broad bean (Vicia faba) (setting [6]) is recorded as 2.5%; with broad bean (Vicia faba) (setting [7]), 2.5%; in the series on broad bean (Vicia faba) (setting [8]), 2.5%; in the series on broad bean (Vicia faba) (setting [9]) it was 49%; in the series with broad bean (Vicia faba) (setting [10]), 93%. The “Brassica napus damage in %” value was 0% in [3] (setting [6]); 1% in series [3] (setting [7]); 29% in series [3] (setting [8]); 83% in [3] (setting [9]); 94% in series [3] (setting [10]). Also, the “Sugar beet damage in %” value is 0% in the series with sugar beet (setting [6]); 1% in the series on sugar beet (setting [7]); 61% in the series on sugar beet (setting [8]); 85% with sugar beet (setting [9]); 92% with sugar beet (setting [10]).

Turning to “2-Iodo-N-[(4-methoxy-6-methyl-1,3,5-triazin-2-yl)carbamoyl]benzenesulfonamide tetrabutylammonium salt [Compound I-18]”, the “herbicidal activity, pre-emergence” value in series [1] was “very good herbicidal activity”. The “herbicidal activity, post-emergence” value in series [2] was “very good herbicidal activity”.

On to `COc1nc(C)nc(NC(=O)NS(=O)(=O)c2ccccc2I)n1.[Li]` [Compound I-1, 2-Iodo-N-[(4-methoxy-6-methyl-1,3,5-triazin-2-yl)carbamoyl]benzenesulfonamide lithium salt], for which, in series [1], the “herbicidal activity, pre-emergence” value is “very good herbicidal activity”. In addition, the “herbicidal activity, post-emergence” value in [2] is on record as “very good herbicidal activity”.
